Data from publication PMC10537604, “Development and Assessment of 1,5–Diarylpyrazole/Oxime Hybrids Targeting EGFR and JNK–2 as Antiproliferative Agents: A Comprehensive Study through Synthesis, Molecular Docking, and Evaluation” (Molecules, 2023).
Like-named read-outs stand apart in the source and are kept apart here.

Assays:
[1] = test system: human colorectal adenocarcinoma cell line DLD-1; assay: WST-8 antiproliferative assay, DLD-1; assay type: cell-based
Method: (§1) Compounds 7a–j, 8a–j, 9a–c, and 10a–c were evaluated for in vitro anticancer activities against five different cancer cell lines, namely, human colorectal adenocarcinoma cell lines DLD-1, human cervical cancer cell line Hela, human pancreatic cancer cell line SUIT-2, human myelogenous leukemia cell line K562, and human hepatocellular carcinoma cell line HepG2 using WST-8 assay at concentrations of 100 µM to investigate the growth inhibition percent (GI%) of each compound using daunorubicin as a reference drug. […]. […] So, as a conclusion on the SAR study of those compounds as antiproliferative agents, the oxime moiety potentiated the anticancer activity and electron donating groups on R1 and R2 played an important role on this activity. Moreover, the sulfamoyl moiety on R3 seems to play a potential role in the activity of the prepared compounds (Table 1).
(§2) All selected compounds and daunorubicin were recorded as the minimum concentration required to inhibit half cell growth (IC50) and the results are listed in Table 2.
(§3) Evaluation of anticancer activity was performed according to the standard water-soluble tetrazolium-8 (WST-8) assay at the Faculty of Engineering, Yamagata University, Yonezawa, Japan, using an MTP-310 absorbance microplate reader. The EGFR inhibitory assay was carried out at the Faculty of Engineering, Yamagata University, Yonezawa, Japan, according to the protocol enzyme linked immunosorbent assay (ELISA) kits (Douset sandwich ELISA test, recombinant mouse EGFR). The JNK-2 inhibitory assay was performed at the Faculty of Engineering, Yamagata University, Yonezawa, Japan, according to the protocol of enzyme-linked immunosorbent assay (ELISA), the assay was carried out using the JNK-2 kit (Simple Step ELISA, pT183/Y185, Abcam Company, Cambridge, CB2 0AX, UK). Apoptosis and cell cycle analysis was performed at Faculty of medicine, Yamagata University, Yamagata, Japan, using BD FACS melody. Molecular docking was performed at the Nano Medical Engineering Laboratory, RIKEN Cluster for Pioneering Researchers, RIEKN, Japan, using ICM-Pro 3.8 software (MolSoft L.L.C., San Diego, CA, USA).
(§4) According to the standard water-soluble tetrazolium-8 (WST-8) assay, the current synthesized compounds have been tested for their anticancer activities against different five cancer cell lines; DLD-1, Hela, K562, SUIT-2, and HepG2 and daunorubicin was used as reference drug by the WST-8 assay. The five cells were maintained in a suspension culture, (Dulbecco’s modified eagle medium (DMEM) for SUIT-2, Hela, and HepG2 or PRIM for K562 and DLD), supplemented with 5% FBS (Fetal Bovine Serum) containing 1% of a penicillin-streptomycin (1:1) mixture. A 100 μL aliquot of cells (10,000 cells/mL) was added to a 96 well plate and incubated for 24 h at 37 °C in a humidified incubator containing 5% CO2 in the air. After 24 h, a 10 μL aliquot of test compound (concentrations varying in the range of 10–150 µM) was added to each of the 96 wells and incubated for 24 h. Then A 10 μL WST-8 solution (mixture of WST-8 and 1-methoxy PMS) was added to each well and the incubation continued for 3 h. The visible absorbance at 450 nm and 630 nm as the reference wavelength of each well was quantified using an MTP-310 absorbance microplate reader. Daunorubicin was used as a positive control. The results of cytotoxicity were recorded as growth inhibition percentages and as IC50 values.

[2] = test system: human cervical cancer cell line Hela; assay: WST-8 antiproliferative assay, Hela; assay type: cell-based; details: for inhibition at 100 µM: read-out: Growth Inhibition (GI%) Hela; for IC50: read-out: IC50 Hela
Method: as §1, §2, §3
as §4, with “After 24 h, a 10 μL aliquot of test compound (concentrations varying in the range of 10–150 µM) was added to each of the 96 wells and incubated for 24 h.” left out

[3] = test system: human myelogenous leukemia cell line K562; assay: WST-8 antiproliferative assay, K562; assay type: cell-based
Method: as §1, §2, §3
as §4, with “After 24 h, a 10 μL aliquot of test compound (concentrations varying in the range of 10–150 µM) was added to each of the 96 wells and incubated for 24 h.” left out

[4] = test system: human pancreatic cancer cell line SUIT-2; assay: WST-8 antiproliferative assay, SUIT-2; assay type: cell-based
Method: as §1, §2, §3, §4

[5] = test system: human hepatocellular carcinoma cell line HepG2; assay: WST-8 antiproliferative assay, HepG2; assay type: cell-based
Method: as §1, §2, §3, §4

[6] = test system: human colorectal adenocarcinoma cell line DLD-1; assay: WST-8 antiproliferative assay, DLD-1; assay type: cell-based; details: WST-8 assay, six concentrations 1-100 µM
[7] = test system: human pancreatic cancer cell line SUIT-2; assay: WST-8 antiproliferative assay, SUIT-2; assay type: cell-based; details: WST-8 assay, six concentrations 1-100 µM
[8] = test system: human hepatocellular carcinoma cell line HepG2; assay: WST-8 antiproliferative assay, HepG2; assay type: cell-based; details: WST-8 assay, six concentrations 1-100 µM
EGFR tyrosine kinase = molecular target: EGFR tyrosine kinase; design: method as in doi:10.21608/jabps.2021.77469.1129, PMID 24731281; details: literature values ref [4],[29]; read-out: EGFR tyrosine kinase inhibitory activity IC50; cited from earlier work
[9] = test system: PC12 (rat adrenal-derived pheochromocytoma cells); assay: WST-8 cytotoxicity towards normal cell line PC12; assay type: cell-based; details: Rattus norvegicus, PC-12, read-out: percentage growth inhibition PC12
Method: The evaluation of normal cell viability is fundamental in analyzing the efficacy of target compounds and is often used in conjunction with cytotoxicity tests to help understand how target compound toxicity affects normal cell health. […] A 100 μL aliquot of cells (10,000 cells/mL) was added to a 96 well plate and incubated for 24 h at 37 °C in a humidified incubator containing 5% CO2 in the air. […] Then, a 10 μL WST-8 solution (mixture of WST-8 and 1-methoxy PMS) was added to each well and the incubation continued for 3 h. The visible absorbance at 450 nm and 630 nm as the reference wavelength of each well was quantified using an MTP-310 absorbance microplate reader. Daunorubicin was used as a positive control. The results of cytotoxicity were recorded as growth inhibition percentages and as IC50 values.

[10] = DLD-1, 100 µM, WST-8 assay, read-out: Growth Inhibition (GI%) DLD-1
[11] = Homo sapiens, K562, 100 µM, WST-8 assay, read-out: Growth Inhibition (GI%) K562
[12] = SUIT-2, 100 µM, WST-8 assay, read-out: Growth Inhibition (GI%) SUIT-2
[13] = HepG2, 100 µM, WST-8 assay, read-out: Growth Inhibition (GI%) HepG2

melting point [°C] | IC50 [6] [µM] | IC50 [7] [µM] | Compound | inhibition at 100 µM [1, 10] [%] | inhibition at 100 µM ([2]; 100 µM, WST-8 assay) [%] | inhibition at 100 µM [3, 11] [%] | inhibition at 100 µM [4, 12] [%] | inhibition at 100 µM [5, 13] [%] | IC50 (EGFR tyrosine kinase) [µM] | further results
110 to 112 | 13 | 45 | COc1cc(C(C)=O)ccc1OC(=O)c1cc(-c2ccc(C)cc2)n(-c2ccccc2)n1 [Compound 7b, 4–Acetyl–2–methoxyphenyl–1–phenyl 5–p–tolyl–1H–pyrazole–3–carboxylate] | 81 | 83 | 70 | 103 | 85 |  | IC50 ([2]; WST-8 assay, six concentrations 1-100 µM): 55 µM; IC50 [8]: 45 µM
 |  |  | Cc1ccc(-c2cc(-c3ccc4ccccc4c3)n(C3=NC(=O)CS3)n2)cc1C [II] |  |  |  |  |  | 0.06 | 
 |  |  | COc1cccc2c1C(=O)c1c(O)c3c(c(O)c1C2=O)C[C@@](O)(C(C)=O)C[C@@H]3O[C@H]1C[C@H](N)[C@H](O)[C@H](C)O1 [Daunorubicin, daunorubicin, reference compound] |  |  |  |  |  |  | inhibition at 100 µM ([1]; DLD-1, read-out: Growth Inhibition (GI%) DLD-1): 82.5%; IC50 ([1]; DLD-1, read-out: IC50 DLD-1): 30 µM; inhibition at 100 µM [2]: 100%; IC50 [2]: 0.097 µM; inhibition at 100 µM ([3]; Homo sapiens, K562, read-out: Growth Inhibition (GI%) K562): 100%; IC50 ([3]; Homo sapiens, K562, read-out: IC50 K562, WST-8 assay, six concentrations 1-100 µM): 13 µM; IC50 ([3]; read-out: IC50 K562, WST-8 assay, six concentrations 1-100 µM): 13.3 µM; inhibition at 100 µM ([4]; SUIT-2, read-out: Growth Inhibition (GI%) SUIT-2): 92%; IC50 ([4]; SUIT-2, read-out: IC50 SUIT-2): 9 µM; inhibition at 100 µM ([5]; HepG2, read-out: Growth Inhibition (GI%) HepG2): 100%; IC50 ([5]; HepG2, read-out: IC50 HepG2): 22 µM; inhibition at 1 µM [9]: 81%; inhibition at 50 µM [9]: 107%; inhibition at 100 µM [9]: 113%
83 to 85 | 13 | 31 | COc1cc(C(C)=O)ccc1OC(=O)c1cc(-c2ccc(C)cc2)n(-c2ccc(S(N)(=O)=O)cc2)n1 [Compound 7g, 4–Acetyl–2–methoxyphenyl–1–(4–sulfamoylphenyl) 5–p–tolyl–1H–pyrazole–3–carboxylate] | 96.7 | 30 | 77 | 92 | 66 |  | 
 |  |  | COc1ccc(-c2cc(-c3ccc(C)c(C)c3)nn2C(N)=S)cc1 [Compound I] |  |  |  |  |  | 0.07 | 
